Several values for one entry are separate records, joined by “and”; a condition that tells them apart may be missing. Equal values may be shown once.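 Results reflect a 48-hour exposure of cells in 96-well plates to compound at five concentrations. Here, GI50 denotes the concentration required for 50% inhibition of growth. Definition used: TGI = concentration required for complete inhibition of growth.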
What was measured:
Assay in all cases: NCI-60 cell line screen, 48 h
COLO 205 colon = tested on: COLO 205 colon
NCI-H226 lung = tested on: NCI-H226 lung
NCI-H460 lung = tested on: NCI-H460 lung
OVCAR-3 ovarian = tested on: OVCAR-3 ovarian
RXF 393 renal = tested on: RXF 393 renal
SN12C renal = tested on: SN12C renal
SNB-75 CNS = tested on: SNB-75 CNS
UACC-62 melanoma = tested on: UACC-62 melanoma
UO-31 renal = tested on: UO-31 renal
DU-145 prostate = tested on: DU-145 prostate

| SMILES | GI50 (COLO 205 colon) | TGI (COLO 205 colon) | GI50 (NCI-H226 lung) | TGI (NCI-H226 lung) | GI50 (NCI-H460 lung) | TGI (NCI-H460 lung) | GI50 (OVCAR-3 ovarian) | TGI (OVCAR-3 ovarian) | GI50 (RXF 393 renal) | TGI (RXF 393 renal) | GI50 (SN12C renal) | TGI (SN12C renal) | GI50 (SNB-75 CNS) | TGI (SNB-75 CNS) | GI50 (UACC-62 melanoma) | TGI (UACC-62 melanoma) | GI50 (UO-31 renal) | TGI (UO-31 renal) | GI50 (DU-145 prostate) | TGI (DU-145 prostate) |
| --- | --- | --- | --- | --- | --- | --- | --- | --- | --- | --- | --- | --- | --- | --- | --- | --- | --- | --- | --- | --- |
| CCC[CH2][Sn]([CH2]CCC)([S]C#N)[S]C#N | 1.4 µM | 3.77 µM | 1.77 µM | 3.25 µM | 2.14 µM | 4.96 µM | 1.4 µM | 2.7 µM | 0.342 µM | 1.33 µM | 1.18 µM | 2.52 µM | 0.592 µM | 2.08 µM | 0.58 µM | 2 µM | 1.61 µM | 2.98 µM | – | – |
| CC(=O)OC12C=C(C)C(C(C)C1)C1C(=O)N(CCN3CCCCC3)C(=O)C12 (stereo not given) | > 50 µM | > 50 µM | > 50 µM | > 50 µM | – | – | – | – | 19.9 µM | > 50 µM | > 50 µM | > 50 µM | > 50 µM | > 50 µM | > 50 µM | > 50 µM | > 50 µM | > 50 µM | > 50 µM | > 50 µM |
| COc1ccc2oc3c(OC)c(OC)c(OC)cc3c(=O)c2c1 | – | > 100 µM | – | – | – | > 100 µM | – | – | – | 84.4 µM | – | > 100 µM | – | 84.5 µM | – | > 100 µM | – | > 100 µM | – | – |
| COc1ccccc1NC(=O)C1=C(C)NC(C)=C(C(=O)Nc2ccccc2OC)C1/C=C/c1ccccc1 | – | > 100 µM | – | > 100 µM | – | > 100 µM | – | > 100 µM | – | – | – | > 100 µM | – | 79.7 µM | – | > 100 µM | – | > 100 µM | – | – |
| CCOC(=O)/C(=C/c1cccc(Cl)c1)N(CC)CC | – | > 100 µM | – | > 100 µM | – | > 100 µM | – | – | – | – | – | > 100 µM | – | > 100 µM | – | > 100 µM | – | > 100 µM | – | – |
| CC(C)c1cccc(C(C)C)c1N1C(=O)C(=O)C(c2nc3ccccc3o2)C(=O)C1=O | – | > 100 µM | – | > 100 µM | – | > 100 µM | – | > 100 µM | – | > 100 µM | – | > 100 µM | – | > 100 µM | – | > 100 µM | – | > 100 µM | – | – |
| CCCCCC(O)C(O)CCC[C@H](O)[C@H]1CC[C@H]([C@H]2CC[C@H]([C@H](O)CCCCCCCCCCCCC3=C[C@H](C)OC3=O)O2)O1 (stereo not given in full) | – | 14.2 µM | 5.25 µM | 35.9 µM | 1.69 µM | 31.7 µM | 12.3 µM | 8.38 µM and 31.6 µM | 11.1 µM | 30.9 µM | 13.6 µM | 66.6 µM | 15.2 µM | 37.9 µM | – | 7.54 µM | 4.46 µM | 5.67 µM and 20.5 µM | – | – |
| [N-]=[N+]=NCCCn1c2c(c3ccc([N+](=O)[O-])cc3c1=O)C(=O)c1cc(Br)ccc1-2 | > 100 µM | > 100 µM | > 100 µM | > 100 µM | 8.35 µM | > 100 µM | > 100 µM | > 100 µM | > 100 µM | > 100 µM | > 100 µM | > 100 µM | – | – | > 100 µM | > 100 µM | > 100 µM | > 100 µM | 14.9 µM | > 100 µM |
| COc1cc(/C=C/c2ccc(O)c(OC)c2)cc(OC)c1 | – | > 100 µM | – | – | – | 52.5 µM | – | – | – | > 100 µM | – | – | – | 97 µM | – | – | – | 66.2 µM | – | 61.5 µM |

Reference: PubChem BioAssay (NCI)
